Experimental data published in ChEMBL document CHEMBL2094269, “WEHI/Eskitis Trypanosoma b. brucei screening data”.
Values joined by “and” are separate entries in the source; they are usually repeats but may differ in a detail not shown here. Equal entries are not always repeated.

System: Trypanosoma brucei brucei
Test: microbe, parasite or virus in culture
Format: functional, organism-based, STIB 795
Settings: not given

IC50 | SMILES
5.54 µM | CCN1/C(=C/C2=CC(=O)CC(C)(C)C2)Sc2ccccc21
6.09 µM and 15.5 µM | CN(C)c1ccc(/C=C2\SC(=N)N(c3nccs3)C2=O)cc1

Second part, the compound before the results:

SMILES | IC50
Cc1c(C)n(CC(O)CNCc2ccccc2)c2ccccc12 (centres undefined) | 7.63 µM
CCN(CC)c1ccc(CNCCc2c(C)[nH]c3ccccc23)cc1 | 3.4 µM

Same assay, conditions: Trypanosoma brucei, STIB 795

IC50 | SMILES
> 10.4 µM | CC(C)CCn1c(C(C)N2CCCCC2)nc2ccccc21 (centres undefined)
> 10.4 µM | CSC1C(c2ccc(F)cc2)=NN(C(=O)Nc2ccc(C#N)cc2)C1(C)C (centres undefined)
5.4 µM | CCN1/C(=C/C2=CC(=O)CC(C)(C)C2)Sc2ccccc21
> 10.4 µM | O=C(O)c1ccc(NC(CC(=O)c2ccc(Cl)cc2)c2ccccc2)cc1 (centres undefined)
> 10.4 µM | Cc1nc(N)nc(N)c1[C@@H]1CCC[C@@H](c2ccc(C(F)(F)F)cc2)C1
> 10.4 µM | CCn1cc(C(=O)N(C)c2ccccc2F)c2cc(OC)c(OC)cc2c1=O
> 10.4 µM | COc1ccc(-c2n/c(=N/c3ccccc3)sn2-c2ccccc2)cc1
> 10.4 µM | O=c1c(-c2ccccc2)c(-c2ccccc2)[nH]c2ccccc12
> 10.4 µM | Cc1ccc(OCCn2c(N)nc3ccccc32)cc1
> 10.4 µM | COc1ccc(O)c(/C=N/NC(=O)c2cccc3ccccc23)c1
> 10.4 µM | COc1ccc(/C(N)=N/OC(=O)c2cccc(F)c2)cc1
> 10.4 µM | Cc1cc(OCC(=O)NNc2ccccc2)c(C(C)C)cc1Cl
> 10.4 µM | Oc1c(C(c2ccccn2)N2CCCCC2)cc(Cl)c2cccnc12 (centres undefined)
> 10.4 µM | C=C(CC(CN1CCOCC1)C(=O)c1ccccc1)C(=O)c1ccccc1 (centres undefined)
> 10.4 µM | CSc1ccc(C2N=C(c3ccc(C)cc3)CC(c3ccccc3O)N2)cc1 (centres undefined)
> 10.4 µM | CC1=C(C)C(=O)C(c2cccs2)=C(C)C1=O
> 10.4 µM | CCCN1C/C(=C/c2cccc(F)c2)C(=O)/C(=C/c2cccc(F)c2)C1
> 10.4 µM | CC(/C=N/NC(=O)c1cc(-c2ccc(OC(C)C)cc2)n[nH]1)=C\c1ccccc1
> 10.4 µM | N#Cc1c(Cl)ncc2c1Nc1ccccc1C2Sc1ccccc1 (centres undefined)
> 10.4 µM | COCc1nc2ccccc2n1CCCCOc1cccc(C)c1
> 10.4 µM | CCCC1(CCC)c2ccccc2C(=CCCN(C)C)c2ccccc21
> 10.4 µM | C/C(=N\NC(=O)c1ccc(C)c(Br)c1)c1ccc(O)cc1O
> 10.4 µM | O=C(Nc1ccccc1C(=O)N/N=C/c1ccccc1O)c1ccco1
> 10.4 µM | Cc1c(-c2cccc(O)c2)ccc2nc(N)nc(N)c12
> 10.4 µM | Cc1cccc(C(=N)NOC(=O)c2ccc3c(c2)OCO3)c1
> 10.4 µM | CCC(CO)NCC(O)Cn1c2ccc(Cl)cc2c2cc(Cl)ccc21 (centres undefined)
> 10.4 µM | O=C(/C(=C/c1cccnc1)c1nc2ccccc2[nH]1)c1ccccc1
> 10.4 µM | N#Cc1c(N)nc(SCc2ccccc2)c(C#N)c1C1CCCCC1

IC50 | SMILES
> 10.4 µM | ON=C1C=CC(=NNc2nncc3ccccc23)C=C1
> 10.4 µM | CCc1no[c+](-c2ccccc2O)n1C
> 10.4 µM | CCn1c(C)cc(=S)c2ccccc21
> 10.4 µM | O=C(NCC1CCCO1)c1cccc(Oc2cc(-c3ccc(F)cc3)ncn2)c1 (centres undefined)
> 10.4 µM | COC(=O)c1ccccc1N/N=N/c1nc2ccccc2s1
> 10.4 µM | Cc1ccsc1C=NN1CCN(c2ccc(Cl)cc2)CC1
> 10.4 µM | CC1=C/C(=N\OC(=O)c2ccccc2Br)CC(C)(C)C1
> 10.4 µM | O=c1[nH]c(NCCCO)nc2sc3c(c12)CCCC3
> 10.4 µM | CC(=O)N(C)c1ccc(/N=C2/C(=O)Nc3cc(Br)c(C)cc32)cc1
> 10.4 µM | Cc1cc(N2CCC(C)CC2)nc2ccc(NC(=O)c3cccc(Cl)c3)cc12
> 10.4 µM | CCN1CCN(c2cc(C)c3cc(NC(=O)c4cccs4)ccc3n2)CC1
> 10.4 µM | CN(C)S(=O)(=O)c1ccc(C(=O)Nc2nnc(-c3cccs3)o2)cc1
> 10.4 µM | S=C1N(c2ccccc2)c2ccccc2C12CCOCC2
> 10.4 µM | CCOc1ccc(C(=O)CC(c2ccccc2)C(C#N)C#N)cc1 (centres undefined)
> 10.4 µM | Cc1cc(C(=O)N/N=C/c2ccc(-c3cccc(C(=O)O)c3)o2)[nH]n1
> 10.4 µM | CCN(CC)c1ccc(N)c(C)c1
> 10.4 µM | COc1ccccc1-c1nnc(Cc2ccc(F)cc2Cl)o1
> 10.4 µM | Cc1c(-c2cc(Cl)cc(-c3ccc(F)cc3)c2)ccc2nc(N)nc(N)c12
> 10.4 µM | CCC(=O)c1ccc(Oc2cc(=O)n(C)c(=O)n2C)cc1
> 10.4 µM | Cc1cccc(/C(=N\c2ccc(C)c(Cl)c2)NC2CCCCC2)c1
> 10.4 µM | O=C(/C=C/c1ccccc1)Nc1c(-c2ccccc2)nc2ccc(Cl)cn12
> 10.4 µM | COc1ccc(C(=O)CSC2=C(C#N)C3(CCCCC3)C(C#N)=C(N)N2)cc1
> 10.4 µM | Cc1ccc(N2CCN(c3ccc4nnc(C)n4n3)CC2)c(C)c1
> 10.4 µM | Oc1ccc(-c2nnc(SCCN3CCCCC3)n2Cc2ccccc2)cc1
> 10.4 µM | Clc1ccc2nc(CCc3ccccc3)nc(NCCN3CCCCC3)c2c1
> 10.4 µM | C(=N\Nc1nc(-c2ccccc2)cs1)/c1ccncc1
> 10.4 µM | COC(=O)c1sc(=S)n(-c2cc(F)ccc2F)c1N

More lines, now with the values behind:

SMILES | IC50
CN(C)c1ccc(C(=O)NN=C2C=C(C(C)(C)C)C(=O)C(C(C)(C)C)=C2)cc1 | > 10.4 µM
OCCSc1nc2ccccc2nc1N/N=C/c1ccccc1O | > 10.4 µM
CC(Nc1cccc2ccccc12)C(=O)N/N=C/c1cccc(O)c1 (centres undefined) | > 10.4 µM
O=C(Nc1nc(-c2ccncc2)cs1)c1ccc(Oc2ccccc2)cc1 | > 10.4 µM
c1ccc(/C(=N\Nc2nc3ccccc3s2)c2ccccn2)cc1 | > 10.4 µM
O=C(N/N=C/c1cc(Cl)cc(Br)c1O)c1ccccc1O | > 10.4 µM
COc1cccc(/C=C2/CN(C(C)C)C/C(=C\c3cccc(OC)c3)C2=O)c1 | > 10.4 µM
COC(=O)c1cc(NC(=O)Nc2ccc3snnc3c2)cc(C(=O)OC)c1 | > 10.4 µM
Cc1ccc(Nc2nc3nonc3nc2NC(C)(C)C)cc1Cl | > 10.4 µM
N=C(NOC(=O)c1cccc(Br)c1)c1ccncc1 | > 10.4 µM
COc1ccc(-c2noc(CCC(=O)Nc3ccncc3)n2)cc1OC | > 10.4 µM
OCCNCc1c(OCc2ccc(Cl)cc2Cl)ccc2ccccc12 | > 10.4 µM
CON(C)C(=O)Nc1ccc(Cl)c(CN2OCC(C)(C)C2=O)c1 | > 10.4 µM
O=C1/C(=N\c2ccccc2)Sc2ccccc21 | > 10.4 µM
CN(C)CCNC(=O)c1ccc2c(c1)NC(=O)/C(=C/c1ccccc1Cl)O2 | > 10.4 µM
CC(C)=CCC1(C)C(=O)N(c2ccccc2)c2ccccc21 (centres undefined) | > 10.4 µM
CC(=O)C1=C(c2ccc(Br)cc2)C(=O)c2ccccc2C1=O | > 10.4 µM
CCOC(=O)c1c(NC(C)=O)sc2c1CCC(Sc1ccccc1)C2O (centres undefined) | > 10.4 µM
CCC(=O)Nc1nc2ccccc2n1Cc1ccccc1C | > 10.4 µM
Cc1c(C)n(CC(O)CNCc2ccccc2)c2ccccc12 (centres undefined) | 5.49 µM
CC1CCN(C(=S)NC(=O)c2ccccc2I)CC1 | > 10.4 µM
CCCC(=O)c1ccc(N2CCN(C(=O)c3c(F)cccc3F)CC2)c(F)c1 | > 10.4 µM

SMILES | IC50
CC1=NN(c2ccccc2)C(=O)/C1=C/c1ccc(Sc2ccc(Cl)cc2)o1 | > 10.4 µM
CC(C)N1C/C(=C/c2ccsc2)C(=O)/C(=C/c2ccsc2)C1 | > 10.4 µM
Cc1ccc(Nc2cc(C)nc(N3CCN(C(=O)c4ccco4)CC3)n2)cc1 | > 10.4 µM
CC(Cc1ccccc1)NCCC1c2ccccc2-c2ccccc21 (centres undefined) | > 10.4 µM
Oc1ccc(Br)c2ccc(/C=C/c3ccccc3)nc12 | > 10.4 µM
Cc1ccc(Nc2nn3nnnc3c3ccccc23)c(C)c1 | > 10.4 µM
O=C(CC(SCc1ccco1)c1ccc(C(F)(F)F)cc1)c1ccco1 (centres undefined) | > 10.4 µM
O=C(N/N=C\c1c(O)ccc2ccccc12)c1ccc(Cn2cccn2)o1 | > 10.4 µM
Cc1cnn(-c2cc(N/N=C/c3cc(Cl)cc(Cl)c3O)ncn2)c1 | > 10.4 µM
Cc1cc(C(=O)N/N=C/c2cc(/N=N/c3ccccc3)ccc2O)[nH]n1 | > 10.4 µM
COc1cccc(C(=O)Nc2ccc3nc(N4CCOCC4)cc(C)c3c2)c1 | > 10.4 µM
COc1ccc(/N=N/c2ccc(O)c3ncccc23)cc1 | > 10.4 µM
NC(CCCCc1ccccc1)c1cccc2ccccc12 (centres undefined) | > 10.4 µM
CCOc1nc(Nc2ccc(Cl)cc2)nc(NC2CCCCC2)n1 | > 10.4 µM
CC(C)C(=O)NC(c1cccs1)c1cc(Cl)c2cccnc2c1O (centres undefined) | > 10.4 µM
CCN(CC)c1cc(C)c2cc(NC(=O)/C=C/c3ccc(OC)cc3)ccc2n1 | > 10.4 µM
CN(C)c1ccc(C(Nc2nccs2)c2ccc3cccnc3c2O)cc1 (centres undefined) | > 10.4 µM
N=C(NOC(=O)C12CC3CC(CC(C3)C1)C2)c1cccnc1 | > 10.4 µM
CCCC(=O)NC(c1ccc(SC)cc1)c1ccc2cccnc2c1O (centres undefined) | > 10.4 µM
O=C(O/N=C(/c1ccc2c(c1)OCO2)N1CCCCC1)c1ccccc1 | > 10.4 µM
CCN(CC)c1ccc(CNCCc2c(C)[nH]c3ccccc23)cc1 | 5.01 µM
CCOc1ccc2c(C)nc(NC3=NC(C)=CC(C)(C)N3)nc2c1 | > 10.4 µM

SMILES | IC50
Cc1ccc(C2=NC(c3ccccc3F)NC(c3ccccc3O)C2)cc1 (centres undefined) | > 10.4 µM
Cn1c(=O)sc2cc(S(=O)(=O)Nc3cccc4cccnc34)ccc21 | > 10.4 µM
N=C(NOC(=O)c1ccc(Cl)c(Cl)c1)c1ccccn1 | > 10.4 µM
c1ccc(-c2cc(-c3ccccn3)nc(-c3ccccn3)c2)cc1 | > 10.4 µM
O=C(CCn1nnc2ccccc21)N/N=C/c1cc(Br)ccc1O | > 10.4 µM
O=C1c2ccc(Cl)c3c(Cl)ccc(c23)C(=O)N1Nc1ccccc1 | > 10.4 µM
O=C(CC(SCCO)c1ccc2c(c1)OCO2)c1cccs1 (centres undefined) | > 10.4 µM
CC12C(=O)N(c3ccc(Cl)cc3O)C(=O)C1C1c3ccccc3C2c2ccccc21 (centres undefined) | > 10.4 µM
COc1ccc(C(=O)c2ccc(N3CCNCC3)c(F)c2)cc1Br | > 10.4 µM
CCOc1ccc(C(=O)N/N=C(\c2ccccc2)c2ccccn2)cc1 | > 10.4 µM
Cc1ccc(Cl)cc1N1CCN(CCN)CC1 | > 10.4 µM
CN(C)CCC1=Cc2cc(Cl)ccc2Sc2ccccc21 | > 10.4 µM
C=CCN1C(=O)/C(=N/NC(=S)SC)c2ccccc21 | > 10.4 µM
Cc1ccc2cc3c(nc2c1)-c1ccccc1/C3=N/NC(N)=S | > 10.4 µM
CC(=O)c1nc2ccccc2n1CC(=O)c1ccc(C)cc1 | > 10.4 µM
Cc1nc2ncnn2c(Sc2ccc(NC(=O)CC(C)C)cc2)c1C | > 10.4 µM
NCC(OCc1ccc(-c2ccccc2)cc1)c1ccccc1 (centres undefined) | > 10.4 µM
Cc1cc(C)c(CCCc2c(C)nc(N)nc2N)cc1C | > 10.4 µM
C(=N\n1cnnc1)/c1cccc(OCCOc2ccccc2)c1 | > 10.4 µM
O=C1C(=O)N(CO)c2ccc(Br)cc21 | > 10.4 µM
CC(C)(C)C(=O)NN=c1c2ccccc2[nH]c2ccccc12 | > 10.4 µM
